Source: ChEMBL document CHEMBL1134030, “Synthesis and structure-activity relationships of guanine analogues as phosphodiesterase 7 (PDE7) inhibitors” (Bioorg Med Chem Lett, 2001)
The source made the active and inactive calls.

How the values were obtained:
Phosphodiesterase 7 [1] = biological target: T1, Phosphodiesterase 7 (Homo sapiens, UniProt Q13946+Q9NP56); experiment: Inhibition of human Phosphodiesterase 7 of HUT-78 cells at 10 uM; type: cell-based
[2] = biological target: T2, Phosphodiesterase 4 (Homo sapiens) (UniProt P27815+Q08499+Q07343+Q08493); experiment: Inhibition of guinea pig Phosphodiesterase 4 at 10 uM; type: protein assay; conditions: Cavia porcellus, target entry is the homologue from another species
Phosphodiesterase 7 [3] = biological target: T1, Phosphodiesterase 7; experiment: Inhibition of human Phosphodiesterase 7 of HUT-78 cells; type: cell-based
[4] = biological target: T3, Phosphodiesterase 3 (Homo sapiens) (UniProt Q14432+Q13370); experiment: Inhibition of guinea pig Phosphodiesterase 3 (PDE3) at 10 uM; type: protein assay; conditions: Cavia porcellus, target entry is the homologue from another species
[5] = biological target: T3, Phosphodiesterase 3 (Homo sapiens); experiment: Inhibition of guinea pig Phosphodiesterase 3 at 10 uM; type: protein assay; conditions: Cavia porcellus, target entry is the homologue from another species
[6] = biological target: T2, Phosphodiesterase 4 (Homo sapiens); experiment: Inhibition of guinea pig Phosphodiesterase 4 at 10 uM (inactive); type: protein assay; conditions: Cavia porcellus, target entry is the homologue from another species
Phosphodiesterase 7 [7] = biological target: T1, Phosphodiesterase 7; experiment: Inhibition of human Phosphodiesterase 7 of HUT-78 cells at 10 uM (inactive); type: cell-based

T1 sequence (Q13946 whole entry, looked up): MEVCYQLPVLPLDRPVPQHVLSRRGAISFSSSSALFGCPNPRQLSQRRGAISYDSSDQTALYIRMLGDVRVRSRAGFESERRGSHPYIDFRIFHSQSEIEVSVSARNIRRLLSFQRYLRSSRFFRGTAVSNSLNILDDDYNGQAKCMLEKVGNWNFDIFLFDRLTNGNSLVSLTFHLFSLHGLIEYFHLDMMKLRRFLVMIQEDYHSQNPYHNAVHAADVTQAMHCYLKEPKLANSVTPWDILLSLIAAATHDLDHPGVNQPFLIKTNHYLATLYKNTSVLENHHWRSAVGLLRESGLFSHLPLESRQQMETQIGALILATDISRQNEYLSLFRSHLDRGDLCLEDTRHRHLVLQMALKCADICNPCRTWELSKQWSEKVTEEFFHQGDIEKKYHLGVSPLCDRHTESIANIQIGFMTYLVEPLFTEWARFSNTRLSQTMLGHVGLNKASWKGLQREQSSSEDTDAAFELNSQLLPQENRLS
T1 sequence (Q9NP56 whole entry, looked up): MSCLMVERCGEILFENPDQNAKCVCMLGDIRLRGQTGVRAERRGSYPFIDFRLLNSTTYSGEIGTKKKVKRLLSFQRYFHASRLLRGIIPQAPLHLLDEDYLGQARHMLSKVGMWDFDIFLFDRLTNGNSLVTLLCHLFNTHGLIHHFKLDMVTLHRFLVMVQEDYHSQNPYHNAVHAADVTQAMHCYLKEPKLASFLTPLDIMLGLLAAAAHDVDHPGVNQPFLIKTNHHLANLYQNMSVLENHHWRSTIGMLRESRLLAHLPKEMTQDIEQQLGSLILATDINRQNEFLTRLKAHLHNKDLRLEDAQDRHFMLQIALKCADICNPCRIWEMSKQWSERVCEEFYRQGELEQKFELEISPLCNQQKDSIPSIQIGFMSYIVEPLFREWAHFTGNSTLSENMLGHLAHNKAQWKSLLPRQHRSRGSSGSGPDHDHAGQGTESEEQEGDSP

inhibition (Phosphodiesterase 7 [1]) [%]	inhibition [2] [%]	IC50 (Phosphodiesterase 7 [3]) [µM]	further results	SMILES
22	27			Nc1nc(O)c2nc(Br)n(C3CCc4ccccc43)c2n1 (centres undefined)
10	13			Nc1nc(O)c2nc(Br)n(C3CCCCc4ccc(F)cc43)c2n1 (centres undefined)
	15	4.88	inhibition [4]: 30%	Nc1nc(O)c2nc(Br)n(C3CCCc4ccccc43)c2n1 (centres undefined)
	20	4.22		COc1ccc2c(c1)C(n1c(Br)nc3c(O)nc(N)nc31)CCC2 (centres undefined)
	42	2.31	inhibition [5]: 19%	Nc1nc(O)c2nc(Br)n(C3CCCc4ccc([N+](=O)[O-])cc43)c2n1 (centres undefined)
4	7			Nc1nc(O)c2ncn(C3CCCc4ccccc43)c2n1 (centres undefined)
			inhibition [6]: inactive; inhibition (Phosphodiesterase 7 [7]): inactive	Oc1ncnc2c1ncn2C1CCCc2ccccc21 (centres undefined)
	10	1.31	inhibition [5]: 14%	Nc1nc(O)c2nc(Br)n(C3CCCc4cccc(Br)c43)c2n1 (centres undefined)
